According to publication doi:10.1101/2024.08.19.608619, “Discovery of potent SARS-CoV-2 nsp3 macrodomain inhibitors uncovers lack of translation to cellular antiviral response” (bioRxiv, 2024):
Several values for one entry are separate records, joined by “and”; a condition that tells them apart may be missing. Equal entries are not always repeated. Where two headings read alike, the source gives them in different places.

What was measured:
[1] = tested on: HeLa-ACE2 cells; details: for perc_max_measured: highest measured response of the dose series; for perc_min_measured: lowest measured response of the dose series
[2] = molecular target: T1, KOR receptor (Homo sapiens, UniProt P41145); experiment: Eurofins CEREP panel, KOR; assay type: binding; details: kappa (h) (KOP) (agonist radioligand), test compound concentration 10 uM
T1 construct: purchased Eurofins Cerep (SafetyScreen44), recognised from the panel format
T1 sequence (P41145 whole entry): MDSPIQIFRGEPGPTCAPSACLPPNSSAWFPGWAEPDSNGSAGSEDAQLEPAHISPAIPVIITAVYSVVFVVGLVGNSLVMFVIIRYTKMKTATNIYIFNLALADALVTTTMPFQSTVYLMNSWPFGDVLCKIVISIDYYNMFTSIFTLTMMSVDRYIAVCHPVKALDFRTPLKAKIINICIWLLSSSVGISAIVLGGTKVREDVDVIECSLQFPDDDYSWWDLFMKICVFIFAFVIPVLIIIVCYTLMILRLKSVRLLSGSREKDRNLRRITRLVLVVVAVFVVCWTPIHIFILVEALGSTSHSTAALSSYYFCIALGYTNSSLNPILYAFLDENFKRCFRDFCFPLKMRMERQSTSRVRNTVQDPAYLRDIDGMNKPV

[3] = In vitro rat hepatocyte stability; assay type: in vitro ADME
Excerpt: (§1) Supplement media-1.zip/Hepatocyte_Stability.csv, table | column: clint; t_half

[4] = In vitro dog hepatocyte stability; assay type: in vitro ADME
Excerpt: as §1

[5] = tested on: CYP; experiment: CYP inhibition; assay type: in vitro ADME; details: In vitro CYP inhibition pooled; for potency: potency class in words
Excerpt: Supplement media-1.zip/CYP_Inhibition.csv, table | column: ic50; potency

[6] = molecular target: T2, 5-HT3 (h) (Homo sapiens, UniProt P46098); experiment: In vitro CEREP profiling, 5-HT3 (h) (antagonist radioligand); assay type: binding; details: test compound concentration 10 uM
T2 construct: purchased Eurofins Cerep (SafetyScreen44), recognised from the panel format
T2 sequence (P46098 24-478): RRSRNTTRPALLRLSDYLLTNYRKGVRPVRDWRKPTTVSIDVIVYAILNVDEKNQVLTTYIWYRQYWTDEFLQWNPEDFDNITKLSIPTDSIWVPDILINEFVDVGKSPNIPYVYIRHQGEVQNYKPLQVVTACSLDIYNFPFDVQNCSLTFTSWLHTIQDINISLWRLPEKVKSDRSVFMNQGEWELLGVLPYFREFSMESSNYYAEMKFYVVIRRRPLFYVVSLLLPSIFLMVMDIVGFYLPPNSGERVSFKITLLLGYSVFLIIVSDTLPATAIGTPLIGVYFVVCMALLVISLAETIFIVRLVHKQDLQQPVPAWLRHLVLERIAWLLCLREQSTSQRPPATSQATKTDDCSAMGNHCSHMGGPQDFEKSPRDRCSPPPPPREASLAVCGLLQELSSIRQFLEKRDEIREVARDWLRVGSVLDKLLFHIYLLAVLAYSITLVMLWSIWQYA
Excerpt: (§2) Supplement media-1.zip/Safety_Panel_Profile.csv, table | column: perc_inhibition

[7] = molecular target: T3, M1 (h) (Homo sapiens, UniProt P11229); experiment: In vitro CEREP profiling, M1 (h) (antagonist radioligand); assay type: binding; details: test compound concentration 10 uM
T3 construct: purchased Eurofins Cerep (SafetyScreen44), recognised from the panel format
T3 sequence (P11229 1-460): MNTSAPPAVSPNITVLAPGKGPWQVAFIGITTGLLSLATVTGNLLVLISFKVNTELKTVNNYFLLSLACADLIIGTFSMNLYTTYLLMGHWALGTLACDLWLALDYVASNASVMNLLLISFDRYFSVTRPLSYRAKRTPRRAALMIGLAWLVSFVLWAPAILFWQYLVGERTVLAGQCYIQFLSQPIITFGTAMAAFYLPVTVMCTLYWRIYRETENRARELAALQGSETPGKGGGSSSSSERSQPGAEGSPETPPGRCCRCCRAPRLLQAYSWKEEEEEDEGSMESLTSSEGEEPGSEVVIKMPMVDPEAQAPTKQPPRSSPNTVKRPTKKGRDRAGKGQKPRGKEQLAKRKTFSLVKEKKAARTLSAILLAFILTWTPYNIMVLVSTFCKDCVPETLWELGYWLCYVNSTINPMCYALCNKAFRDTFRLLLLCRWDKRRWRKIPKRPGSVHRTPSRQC
Excerpt: as §2

[8] = molecular target: T4, Lck kinase (h) (Homo sapiens, UniProt P06239); experiment: In vitro CEREP profiling, Lck kinase (h); assay type: biochemical; details: test compound concentration 10 uM, Enzyme and Cell-based assays
T4 construct: purchased Eurofins Cerep (SafetyScreen44), recognised from the panel format
T4 sequence (P06239 whole entry): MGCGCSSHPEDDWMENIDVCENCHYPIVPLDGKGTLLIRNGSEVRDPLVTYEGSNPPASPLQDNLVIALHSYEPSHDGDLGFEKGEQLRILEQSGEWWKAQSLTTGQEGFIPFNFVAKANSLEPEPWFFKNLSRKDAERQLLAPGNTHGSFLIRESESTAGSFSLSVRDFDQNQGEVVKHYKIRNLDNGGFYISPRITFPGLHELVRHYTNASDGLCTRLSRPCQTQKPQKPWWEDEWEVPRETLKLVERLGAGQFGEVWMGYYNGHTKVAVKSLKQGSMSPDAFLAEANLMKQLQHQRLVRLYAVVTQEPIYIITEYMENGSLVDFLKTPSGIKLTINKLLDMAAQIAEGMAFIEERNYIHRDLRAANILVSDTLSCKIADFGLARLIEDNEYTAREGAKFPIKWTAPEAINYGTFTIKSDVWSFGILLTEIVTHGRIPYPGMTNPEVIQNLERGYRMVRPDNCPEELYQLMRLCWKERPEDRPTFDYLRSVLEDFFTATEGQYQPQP
Excerpt: as §2

[9] = molecular target: T5, CB2 (h) (Homo sapiens, UniProt P34972); experiment: In vitro CEREP profiling, CB2 (h) (agonist radioligand); assay type: binding; details: test compound 10 uM
T5 construct: purchased Eurofins Cerep (SafetyScreen44), recognised from the panel format
T5 sequence (P34972 whole entry): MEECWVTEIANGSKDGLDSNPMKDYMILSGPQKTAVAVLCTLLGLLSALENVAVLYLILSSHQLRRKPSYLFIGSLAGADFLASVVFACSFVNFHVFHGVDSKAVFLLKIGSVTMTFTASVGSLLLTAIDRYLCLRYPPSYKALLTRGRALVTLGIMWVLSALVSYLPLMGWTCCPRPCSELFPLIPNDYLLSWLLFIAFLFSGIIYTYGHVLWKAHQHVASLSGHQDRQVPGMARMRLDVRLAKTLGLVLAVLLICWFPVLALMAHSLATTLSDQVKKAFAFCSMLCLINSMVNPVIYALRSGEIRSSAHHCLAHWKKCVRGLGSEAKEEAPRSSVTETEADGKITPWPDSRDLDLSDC
Excerpt: as §2

[10] = molecular target: T6, V1a (h) (Homo sapiens, UniProt P37288); experiment: In vitro CEREP profiling, V1a (h) (agonist radioligand); assay type: binding; details: test compound concentration 10 uM
T6 construct: purchased Eurofins Cerep (SafetyScreen44), recognised from the panel format
T6 sequence (P37288 whole entry): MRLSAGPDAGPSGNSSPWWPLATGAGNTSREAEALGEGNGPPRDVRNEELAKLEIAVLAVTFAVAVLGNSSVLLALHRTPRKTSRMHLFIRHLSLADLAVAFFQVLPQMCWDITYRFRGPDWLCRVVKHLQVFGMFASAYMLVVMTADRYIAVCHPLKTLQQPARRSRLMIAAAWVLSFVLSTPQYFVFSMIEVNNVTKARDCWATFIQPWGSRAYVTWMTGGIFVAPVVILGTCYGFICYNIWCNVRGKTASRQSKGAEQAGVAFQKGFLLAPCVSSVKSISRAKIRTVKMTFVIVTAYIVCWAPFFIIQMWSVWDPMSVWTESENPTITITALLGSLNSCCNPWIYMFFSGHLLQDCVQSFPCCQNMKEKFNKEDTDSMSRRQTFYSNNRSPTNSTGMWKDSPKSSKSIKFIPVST
Excerpt: as §2

[11] = molecular target: T7, delta (DOP) (h) (Homo sapiens, UniProt P41143); experiment: In vitro CEREP profiling, delta (DOP) (h) (agonist radioligand); assay type: binding; details: test compound concentration 10 uM
T7 construct: purchased Eurofins Cerep (SafetyScreen44), recognised from the panel format
T7 sequence (P41143 whole entry): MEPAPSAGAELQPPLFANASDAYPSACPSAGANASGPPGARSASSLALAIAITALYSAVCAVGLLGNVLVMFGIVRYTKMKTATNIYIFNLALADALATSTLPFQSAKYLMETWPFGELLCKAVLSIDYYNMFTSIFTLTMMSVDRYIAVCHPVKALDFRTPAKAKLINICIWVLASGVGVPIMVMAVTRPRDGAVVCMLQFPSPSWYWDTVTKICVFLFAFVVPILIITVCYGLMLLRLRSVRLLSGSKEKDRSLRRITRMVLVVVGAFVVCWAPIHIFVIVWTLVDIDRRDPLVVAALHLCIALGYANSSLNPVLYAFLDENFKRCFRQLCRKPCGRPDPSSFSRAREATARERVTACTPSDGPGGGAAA
Excerpt: as §2

[12] = molecular target: T8, CCK1 (CCKA) (h) (Homo sapiens, UniProt P32238); experiment: In vitro CEREP profiling, CCK1 (CCKA) (h) (agonist radioligand); assay type: binding; details: test compound 10 uM
T8 construct: purchased Eurofins Cerep (SafetyScreen44), recognised from the panel format
T8 sequence (P32238 1-428): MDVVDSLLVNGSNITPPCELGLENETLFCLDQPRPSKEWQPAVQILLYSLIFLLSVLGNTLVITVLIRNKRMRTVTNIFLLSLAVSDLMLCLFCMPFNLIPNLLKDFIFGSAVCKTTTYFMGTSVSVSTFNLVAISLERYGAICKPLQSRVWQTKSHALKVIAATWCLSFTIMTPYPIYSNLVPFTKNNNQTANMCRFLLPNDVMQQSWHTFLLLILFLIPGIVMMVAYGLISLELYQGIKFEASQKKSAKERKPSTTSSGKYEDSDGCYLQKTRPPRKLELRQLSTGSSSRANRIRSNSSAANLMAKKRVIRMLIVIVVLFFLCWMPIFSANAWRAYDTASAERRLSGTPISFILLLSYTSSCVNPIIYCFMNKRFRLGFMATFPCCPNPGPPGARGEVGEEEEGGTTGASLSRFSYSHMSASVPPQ
Excerpt: as §2

[13] = molecular target: T9, mu (MOP) (h) (Homo sapiens, UniProt P35372); experiment: In vitro CEREP profiling, mu (MOP) (h) (agonist radioligand); assay type: binding; details: test compound concentration 10 uM
T9 construct: purchased Eurofins Cerep (SafetyScreen44), recognised from the panel format
T9 sequence (P35372 whole entry): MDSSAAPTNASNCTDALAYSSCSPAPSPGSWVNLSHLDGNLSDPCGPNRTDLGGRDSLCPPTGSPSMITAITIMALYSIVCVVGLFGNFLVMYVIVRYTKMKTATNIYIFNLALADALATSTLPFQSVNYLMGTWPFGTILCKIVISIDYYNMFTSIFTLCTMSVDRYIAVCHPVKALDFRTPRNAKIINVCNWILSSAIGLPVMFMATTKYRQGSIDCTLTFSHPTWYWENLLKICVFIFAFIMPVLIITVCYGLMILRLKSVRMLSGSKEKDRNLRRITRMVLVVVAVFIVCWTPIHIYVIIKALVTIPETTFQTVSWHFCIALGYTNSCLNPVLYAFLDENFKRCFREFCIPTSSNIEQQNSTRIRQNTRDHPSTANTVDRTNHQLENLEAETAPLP
Excerpt: as §2

[14] = molecular target: hERG (Homo sapiens, UniProt Q12809); experiment: In vitro hERG cardiotoxocity; details: for IC50: top test concentration 30 uM
Sequence of hERG (Q12809 whole entry): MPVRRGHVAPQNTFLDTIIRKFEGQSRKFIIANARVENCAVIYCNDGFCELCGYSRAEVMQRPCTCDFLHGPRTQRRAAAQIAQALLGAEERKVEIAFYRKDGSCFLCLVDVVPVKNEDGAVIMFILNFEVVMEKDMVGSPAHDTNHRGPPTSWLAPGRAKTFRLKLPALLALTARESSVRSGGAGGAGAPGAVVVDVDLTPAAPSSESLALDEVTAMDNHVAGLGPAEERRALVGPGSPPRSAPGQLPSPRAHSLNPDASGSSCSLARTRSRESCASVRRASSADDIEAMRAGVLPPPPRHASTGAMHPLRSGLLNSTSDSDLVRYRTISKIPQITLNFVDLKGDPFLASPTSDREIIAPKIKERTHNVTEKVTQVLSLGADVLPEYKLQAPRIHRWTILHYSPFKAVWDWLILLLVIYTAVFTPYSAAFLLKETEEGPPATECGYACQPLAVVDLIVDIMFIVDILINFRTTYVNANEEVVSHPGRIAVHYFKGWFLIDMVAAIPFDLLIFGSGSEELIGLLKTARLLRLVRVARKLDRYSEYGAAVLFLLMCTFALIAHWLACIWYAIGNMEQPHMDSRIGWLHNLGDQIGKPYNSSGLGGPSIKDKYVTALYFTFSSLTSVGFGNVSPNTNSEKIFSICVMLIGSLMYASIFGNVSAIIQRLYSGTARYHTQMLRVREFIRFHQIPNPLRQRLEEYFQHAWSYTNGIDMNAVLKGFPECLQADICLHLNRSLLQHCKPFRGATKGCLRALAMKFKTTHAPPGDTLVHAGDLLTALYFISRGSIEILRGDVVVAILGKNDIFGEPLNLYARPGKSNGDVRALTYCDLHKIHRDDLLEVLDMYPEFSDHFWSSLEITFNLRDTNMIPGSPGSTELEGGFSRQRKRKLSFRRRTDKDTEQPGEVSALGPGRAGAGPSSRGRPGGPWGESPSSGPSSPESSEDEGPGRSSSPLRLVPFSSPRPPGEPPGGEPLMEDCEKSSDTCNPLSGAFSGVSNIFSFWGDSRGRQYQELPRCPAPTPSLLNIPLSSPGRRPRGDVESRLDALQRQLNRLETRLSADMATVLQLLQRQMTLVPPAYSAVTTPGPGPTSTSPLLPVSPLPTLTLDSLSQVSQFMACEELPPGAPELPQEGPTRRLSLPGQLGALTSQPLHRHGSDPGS
Excerpt: Supplement media-1.zip/Cardiotoxicity.csv, table | column: ic50; perc_inhibition_top_conc

[15] = molecular target: T10, 5-HT1B (h) (Homo sapiens, UniProt P28222); experiment: In vitro CEREP profiling, 5-HT1B (h) (antagonist radioligand); assay type: binding; details: test compound concentration 10 uM
T10 construct: purchased Eurofins Cerep (SafetyScreen44), recognised from the panel format
T10 sequence (P28222 whole entry): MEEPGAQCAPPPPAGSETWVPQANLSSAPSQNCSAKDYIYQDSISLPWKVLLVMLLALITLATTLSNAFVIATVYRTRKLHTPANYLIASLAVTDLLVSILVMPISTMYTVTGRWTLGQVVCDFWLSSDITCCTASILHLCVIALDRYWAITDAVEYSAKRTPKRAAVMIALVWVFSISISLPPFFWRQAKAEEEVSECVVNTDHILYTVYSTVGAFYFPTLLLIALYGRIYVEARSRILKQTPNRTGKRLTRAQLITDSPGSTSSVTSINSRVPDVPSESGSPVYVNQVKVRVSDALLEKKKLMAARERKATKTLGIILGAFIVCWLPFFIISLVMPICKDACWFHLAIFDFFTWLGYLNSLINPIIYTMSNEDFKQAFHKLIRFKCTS
Excerpt: as §2

[16] = tested on: NMDA; experiment: In vitro CEREP profiling, NMDA (antagonist radioligand); assay type: binding; details: test compound concentration 10 uM
Excerpt: as §2

[17] = protocol HeLa-ACE2 cytotoxicity
[18] = read-out: perc_inhibition (% inhibition of the binding of a ligand specific for each target)
[19] = read-out: perc_inhibition, % inhibition of the binding of a ligand specific for each target

Compound | cc10 [1, 17] | perc_max_measured [1, 17] | perc_min_measured [1, 17] | perc_inhibition (% inhibition of the binding of a ligand specific for each target) [2] | clint [3] | t_half [3] | clint [4] | t_half [4] | IC50 ([5]; isoform 1A2) | potency ([5]; isoform 1A2) | IC50 ([5]; isoform 2C9) | potency ([5]; isoform 2C9) | IC50 ([5]; isoform 2C19) | potency ([5]; isoform 2C19) | IC50 ([5]; isoform 2D6) | potency ([5]; isoform 2D6) | IC50 ([5]; isoform 3A4) | potency ([5]; isoform 3A4) | perc_max_measured ([1]; HeLa-ACE2 cytotoxicity) | perc_inhibition (% inhibition of the binding of a ligand specific for each target) [16] | further results
CC(C)C(Nc1ncnc2[nH]ccc12)c1ccc2c(c1)S(=O)(=O)CCC2 (stereo not drawn) [ASAP-0008327] | > 50.0 µM | 104.85% | 98.585% |  |  |  |  |  |  |  |  |  |  |  |  |  |  |  |  |  | 
CC(C)[C@@H](Nc1ncnc2[nH]c(-c3cnn(C)c3C#N)cc12)c1ccc2c(n1)OCCO2 [ASAP-0008418] | > 50.0 µM | 131.128% and 106.847% | 59.813% and 94.114% |  |  |  |  |  |  |  |  |  |  |  |  |  |  |  |  |  | CC50 [1, 17]: > 50 µM
CC(C)[C@H](Nc1ncnc2[nH]ccc12)c1ccc2c(c1)S(=O)(=O)CCC2 [ASAP-0008674] |  |  |  | 84% | 75.8 uL/min/1E6 cells | 9.15 min | < 3.0 uL/min/1E6 cells | > 231.0 min | > 50 µM | weak | 18.2 µM | weak | 15 µM | weak | > 50 µM | weak | 3.2 µM | moderate | 118.208% and 98.628% | -1% | perc_inhibition (% inhibition of the binding of a ligand specific for each target) [6]: 8%; perc_inhibition (% inhibition of the binding of a ligand specific for each target) [7]: 19%; perc_inhibition: % inhibition of control enzyme activity, Lck kinase (h) [8]: 10%; perc_inhibition (% inhibition of the binding of a ligand specific for each target) [9]: -13%; perc_inhibition (% inhibition of the binding of a ligand specific for each target) [10]: 6%; perc_inhibition (% inhibition of the binding of a ligand specific for each target) [11]: 30%; perc_inhibition (% inhibition of the binding of a ligand specific for each target) [12]: -2%; perc_inhibition (% inhibition of the binding of a ligand specific for each target) [13]: 8%; CC50 ([1]; HeLa-ACE2 cytotoxicity): > 20 µM; cc10 ([1]; HeLa-ACE2 cytotoxicity): > 20.0 µM; perc_min_measured ([1]; HeLa-ACE2 cytotoxicity): 91.836% and 85.869%; perc_inhibition_top_conc ([14]; at top test concentration 30 uM): 39.0%; IC50 [14]: > 30 µM; perc_inhibition (% inhibition of the binding of a ligand specific for each target) [15]: 0%
CC(C)[C@H](Nc1ncnc2[nH]c(-c3cnn(C)c3C#N)cc12)c1ccc2c(n1)OCCO2 [ASAP-0010715] |  |  |  | 31% | 87.5 uL/min/1E6 cells | 7.92 min | 3.01 uL/min/1E6 cells | 231.0 min | 35.2 µM | weak | 5.93 µM | moderate | 16.9 µM | weak | 27.7 µM | weak | 3.69 µM | moderate | 90.88% and 122.905% and 97.413% | 2% | perc_inhibition (% inhibition of the binding of a ligand specific for each target) [6]: 6%; perc_inhibition (% inhibition of the binding of a ligand specific for each target) [7]: 7%; perc_inhibition: % inhibition of control enzyme activity, Lck kinase (h) [8]: 20%; perc_inhibition (% inhibition of the binding of a ligand specific for each target) [9]: 44%; perc_inhibition (% inhibition of the binding of a ligand specific for each target) [10]: 27%; perc_inhibition (% inhibition of the binding of a ligand specific for each target) [11]: 58%; perc_inhibition (% inhibition of the binding of a ligand specific for each target) [12]: 1%; perc_inhibition (% inhibition of the binding of a ligand specific for each target) [13]: 15%; CC50 ([1]; HeLa-ACE2 cytotoxicity): 12.5 µM and > 20 µM; IC50 [14]: 11 µM; perc_inhibition (% inhibition of the binding of a ligand specific for each target) [15]: -11%
CC(C)[C@@H](Nc1ncnc2[nH]c(-c3cnn(C)c3C#N)cc12)c1ccc2c(n1)OCCO2 [ASAP-0010716] |  |  |  | 56% | 182.0 uL/min/1E6 cells | 3.8 min | 3.91 uL/min/1E6 cells | 177.0 min | 8.86 µM | moderate | 4.34 µM | moderate | 9.51 µM | moderate | 22.7 µM | weak | 2.07 µM | moderate | 137.444% and 97.941% | 1% | perc_inhibition (% inhibition of the binding of a ligand specific for each target) [6]: 4%; perc_inhibition (% inhibition of the binding of a ligand specific for each target) [7]: 8%; perc_inhibition: % inhibition of control enzyme activity, Lck kinase (h) [8]: 34%; perc_inhibition (% inhibition of the binding of a ligand specific for each target) [9]: 16%; perc_inhibition (% inhibition of the binding of a ligand specific for each target) [10]: 20%; perc_inhibition (% inhibition of the binding of a ligand specific for each target) [11]: 71%; perc_inhibition (% inhibition of the binding of a ligand specific for each target) [12]: 20%; perc_inhibition (% inhibition of the binding of a ligand specific for each target) [13]: 77%; CC50 ([1]; HeLa-ACE2 cytotoxicity): > 20 µM; cc10 ([1]; HeLa-ACE2 cytotoxicity): > 20.0 µM; perc_min_measured ([1]; HeLa-ACE2 cytotoxicity): 84.699% and 78.982%; IC50 [14]: 10.1 µM; perc_inhibition (% inhibition of the binding of a ligand specific for each target) [15]: 4%
Cc1nn(C)cc1-c1cc2c(NC(c3ccc4c(c3)S(=O)(=O)CCC4)C(C)C)ncnc2[nH]1 (stereo not drawn) [ASAP-0011446] | > 20.0 µM | 92.951% | 82.728% |  |  |  |  |  |  |  |  |  |  |  |  |  |  |  | 134.035% | -2% | inhibition at 10 µM [2, 18]: 45%; inhibition at 10 µM [6, 19]: 6%; inhibition at 10 µM [7, 18]: 11%; inhibition at 10 µM ([8]; read-out: perc_inhibition: % inhibition of control enzyme activity, Lck kinase (h)): 33%; inhibition at 10 µM [9, 18]: -8%; inhibition at 10 µM [10, 19]: 14%; inhibition at 10 µM [11, 18]: 16%; inhibition at 10 µM [12, 18]: -8%; inhibition at 10 µM [13, 18]: 28%; cc10 ([1]; HeLa-ACE2 cytotoxicity): > 20.0 µM; perc_min_measured ([1]; HeLa-ACE2 cytotoxicity): 80.92%; CC50 [1, 17]: > 20 µM; inhibition at 10 µM [15, 18]: 15%
